# In patent publication EP0043274A2, “Antithrombotic treatment” (priority 1980, dated 1982):
# Several values for one entry are separate records, joined by “and”; a condition that tells them apart may be missing. Identical values can stand only once.
# What was measured:
# platelet rich plasma = assay: Platelet aggregation in platelet rich plasma, ADP stimulus (Example 25); type: cell-based; conditions: plasma first treated with the compound
# Description: Plasma was centrifuged at 1000 r.p.m. (200 g) to prepare a platelet rich plasma. Using adosine diphosphate (ADP) as a stimulous, rapid aggregation of platelets in the plasma was efected. On the other hand, when such plasma is first treatd with (a) tetramethyl ammonium sulfite, (b) tetramethyl ammonium bisulfite, and then (c) tetrabutyl
# human plasma = assay: Thrombin time (TT) in vitro, standard method; type: biochemical; conditions: U.S.P. grade, control 12.00
# Method: (§1) The effect of U.S.P. grade sodium bisulfite on blood coagulation factors is evaluated by standard procedures (Biggs) and the results are shown in Table III below.
# [1] = test system: human platelet rich plasma; assay: Platelet aggregation in platelet rich plasma, platelet aggregometer (technique of Born); type: cell-based; conditions: 1 millimole (mM); induced by optimal concentrations of ADP, collogen, epinephrine, and arachidonic acid
# Description: A present preference for purposes of evaluating an - antithrombotic effect is to withdraw samples of blood from a patient undergoing treatment and to measure platelet aggregation. One method is described in the paper by Born in Nature 194, pp. 927-929 (1962), which may be used for this purpose if desired.
# That sodium bisulfite is an antiplatelet aggregatory agent is shown by using a platelet aggregometer based on the technique of Born (above cited).
# (§2) Platelet rich plasma from rabbit and men was prepared by the centrugation technique referenced in Example 13. Using ADP (adosine diphosphate) as a stimulus rapid aggregation of platelets occurred. […] This procedure is described in the article by Born in Nature, Vol. 194, pgs. 927-929 (1962).
# as §2, with “rabbits” for “rabbit”, “diphosphate) arachidonic acid” for “diphosphate)”, “stimulus,” for “stimulus”, “Born,” for “Born in”
# [2] = test system: platelet thrombus formation on damaged aortic wall; assay: Indium 111 platelet labeling technique in rabbits (platelet accumulation at vessel wall); type: in vivo
# Method: In medicine, for example, arterial thrombosis is diagnosable by clinical manifestations, by arteriography, and recently, by an Indium 111 platelet labeling technique (see, for example, the article entitled "Differential , Effects of Two Doses of Aspirin on Platelet-Vessel Wall Interaction In Vivo" by K.K. Wu et al being published in the Journal of Clinical Investigtion, August, 1981).
# Sodium bisulfite is evaluated under in vivo conditions as an antithrombotic agent using the anti-indium 111 platelet labeling technique in rabbits (see the Wu et al article above cited). The material was administered by intravenous injection (72.80 milligram per kilogram of animal body weight). […]
# FIBRINOGEN = molecular target: T1, FIBRINOGEN (Homo sapiens, UniProt P02671+P02675+P02679); assay: Coagulation factor assay (Biggs): fibrinogen; type: biochemical; conditions: for FIBRINOGEN (mg%): U.S.P. grade, control 218
# T1 construct: from tissue; host or cells: human plasma
# T1 sequence (P02671 20-629 limits assumed): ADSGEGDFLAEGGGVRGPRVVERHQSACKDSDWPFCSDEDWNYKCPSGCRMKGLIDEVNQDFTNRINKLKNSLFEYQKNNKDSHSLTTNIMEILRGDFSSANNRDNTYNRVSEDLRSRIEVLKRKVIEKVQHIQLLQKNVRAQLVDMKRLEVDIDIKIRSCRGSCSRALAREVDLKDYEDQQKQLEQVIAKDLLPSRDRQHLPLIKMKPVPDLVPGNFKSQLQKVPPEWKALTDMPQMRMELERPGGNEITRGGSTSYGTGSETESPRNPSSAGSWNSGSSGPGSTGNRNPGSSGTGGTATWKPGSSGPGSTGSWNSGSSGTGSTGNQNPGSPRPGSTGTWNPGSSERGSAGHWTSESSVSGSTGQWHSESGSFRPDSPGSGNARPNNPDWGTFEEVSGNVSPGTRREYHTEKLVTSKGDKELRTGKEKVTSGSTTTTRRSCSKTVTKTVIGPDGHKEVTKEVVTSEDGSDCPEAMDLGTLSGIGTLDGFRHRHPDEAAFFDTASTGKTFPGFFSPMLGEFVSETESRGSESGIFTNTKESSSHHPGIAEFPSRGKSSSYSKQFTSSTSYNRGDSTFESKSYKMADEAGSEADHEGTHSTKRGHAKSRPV
# T1 sequence (P02675 31-491): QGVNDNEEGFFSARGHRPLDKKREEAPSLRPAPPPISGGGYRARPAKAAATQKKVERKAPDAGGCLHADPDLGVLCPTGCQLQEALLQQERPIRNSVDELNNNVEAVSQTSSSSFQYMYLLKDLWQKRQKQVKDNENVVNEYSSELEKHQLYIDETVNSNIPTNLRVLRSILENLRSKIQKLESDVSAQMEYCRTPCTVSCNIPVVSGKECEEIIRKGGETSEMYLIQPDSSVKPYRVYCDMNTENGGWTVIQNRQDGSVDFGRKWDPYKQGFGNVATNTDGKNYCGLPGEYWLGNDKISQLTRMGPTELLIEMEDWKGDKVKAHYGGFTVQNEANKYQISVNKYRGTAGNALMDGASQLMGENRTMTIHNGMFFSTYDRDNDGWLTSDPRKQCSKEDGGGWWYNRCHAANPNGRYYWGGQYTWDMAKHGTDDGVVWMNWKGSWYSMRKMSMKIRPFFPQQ
# T1 sequence (P02679 27-453): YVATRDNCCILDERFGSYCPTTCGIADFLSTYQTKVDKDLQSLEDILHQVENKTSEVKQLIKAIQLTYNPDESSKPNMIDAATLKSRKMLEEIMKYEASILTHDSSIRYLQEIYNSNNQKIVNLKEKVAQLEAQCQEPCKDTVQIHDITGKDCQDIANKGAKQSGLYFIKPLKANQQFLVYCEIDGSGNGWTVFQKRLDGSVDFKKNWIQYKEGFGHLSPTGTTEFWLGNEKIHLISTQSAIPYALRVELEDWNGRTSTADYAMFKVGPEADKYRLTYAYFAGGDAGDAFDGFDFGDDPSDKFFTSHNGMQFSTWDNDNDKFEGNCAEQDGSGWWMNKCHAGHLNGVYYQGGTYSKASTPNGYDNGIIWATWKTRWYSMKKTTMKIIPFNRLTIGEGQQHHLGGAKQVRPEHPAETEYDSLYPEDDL
# Method: as §1
# References for PT, PTT, and assays of all the coagulation factors can be found in a standard textbook, entitled "Human Blood Coagulation, Haemostasis and Thrombosis", edited by Rosemary Biggs, published by Blackwell Scientific Publications, Oxford, England (2nd edition), pages 670-705, 1976.
molecule,measurement,setting,value
C[N+](C)(C)C [Tetramethyl-ammonium bisulfite],"platelet aggregation, adosine diphosphate (ADP) as a stimulous",platelet rich plasma,inhibited
Sodium bisulfite,TT,human plasma; 0.01 mg/ml,12.07 s
same,TT,human plasma; 0.05 mg/ml,12.10 s
same,TT,human plasma; 0.1 mg/ml,12.00 s
same,TT,human plasma; 0.5 mg/ml,13.97 s
same,TT,human plasma; 1.0 mg/ml,16.08 s
same,TT,human plasma; 5.0 mg/ml,34.3 s
same,platelet aggregation,[1],abolishes platelet aggregation
same,reduces accumulation of platelet thrombus at the damaged vessel wall,[2]; intravenous injection 72.80 milligram per kilogram,The findings indicate that the active agent reduces accumulation of platelet thrombus at the damaged vessel wall by 70%.
same,Platelet Accumulation II. at normal vessel wall %,"[2]; intravenous injection 72.80 milligram per kilogram, rabbits A and B, control 0.03± 0.02",0.08%
same,Platelet Accumulation II. at normal vessel wall cpm/gm,"[2]; intravenous injection 72.80 milligram per kilogram, rabbits A and B, control 72,140± 39,040","98,611 cpm/gm and 83,066 cpm/gm"
same,Platelet Accumulation I. at damaged vessel wall cpm/gm,"[2]; intravenous injection 72.80 milligram per kilogram, rabbits A and B, count per minute per gram dry weight of tissue, control 1,167,820± 21,310","133,986 cpm/gm and 146,630 cpm/gm"
same,Platelet Accumulation I. at damaged vessel wall %,"[2]; intravenous injection 72.80 milligram per kilogram, rabbits A and B, percentage of injected radioactivity per gram dry weight of tissue, control 0.44± 0.08",0.11% and 0.15%
same,FIBRINOGEN (mg%),FIBRINOGEN; 0.01 mg/ml,222 mg%
same,FIBRINOGEN (mg%),FIBRINOGEN; 0.05 mg/ml,228 mg%
same,FIBRINOGEN (mg%),FIBRINOGEN; 0.1 mg/ml,217 mg%
same,FIBRINOGEN (mg%),FIBRINOGEN; 0.5 mg/ml,190 mg%
same,FIBRINOGEN (mg%),FIBRINOGEN; 1.0 mg/ml,185 mg%
same,FIBRINOGEN (mg%),FIBRINOGEN; 5.0 mg/ml,130 mg%
"CCN(CC)CC.O=S(O)O [TRIETHYL AMINE BISULFITE, triethyl amine bisulfite]",mortality of another rabbit so tested,[2]; intervenous injection 127.39 mg/kg,died
same,reduction in accumulation of platelet thrombus,"[2]; intervenous injection 127.39 mg/kg, equivalent to 0.01 molar concentrations in blood",about 30%
same,Fibrinogen (%),"FIBRINOGEN; mean of two experiments, control 205",125%
